Laboratory results from article PMC13028883 (Pharmaceuticals, 2026).

Assay: Pharmacokinetics of anthraquinones in plasma of cholestatic rats after oral DH, DH+MX or DHXSD
Assay type: in vivo, rat
Conditions: oral DH 1.2 g/kg, mean ± SD, n = 6
Protocol: Cholestasis was established in rats through a single oral dose of ANIT (60 mg/kg in olive oil). […] Sequential blood samples were obtained at 5, 15, 30 min, and 1, 2, 4, 6, 8, 12, 24, and 36 h after administration. Plasma was separated by centrifugation and deproteinized by adding a 3:1 (v/v) ratio of acetonitrile containing 5 ng/mL IS1. Ultra-performance liquid chromatography–tandem mass spectrometry analysis was performed on the supernatants following a centrifugation, employing the described analytical approach [29].
Pharmacokinetic parameters were calculated using Drug And Statistics software (version 3.0). Intergroup comparisons were performed by one-way ANOVA followed by Tukey’s post hoc test for multiple comparisons. A p-value < 0.05 was considered statistically significant.

SMILES: O=C1c2cccc(O)c2C(=O)c2c(O)cc(CO)cc21 [Aloe emodin, aloe emodin]
- t1/2: 4.88 ± 0.97 h
